According to patent publication US5298502A, “Method and composition for photodynamic treatment and detection of tumors” (priority 1991, dated 1994):

Legend:
[1] = tested on: dark-bleached Chlamydomonas reinhardi mutant y-1; assay: Light-Induced Greening Inhibition Test; assay type: cell-based; conditions: compounds ionized in water, operative ion negatively charged
Procedure: Another test of the capacity of a material for disrupting the plasmalemma of plant material is the Light-Induced Greening Inhibition Test described more particularly in Appendix B below.
Stock Cultures of y-1 cells are maintained axenically in liquid culture on Medium A or M, preferably on Medium M, in a 14/10 hour light/dark cycle at 25° C. in Erlenmeyer flasks which are stoppered with polyurethane plugs. The stock cultures are incubated without supplemental aeration on rotary shakers at 125 rpm. The light intensity at the culture level is 120 μE m^-2 sec^-1 (PAR). Under these conditions the cultures are in a semi-synchronous mode of growth until they reach a stationary phase of 2-4×10^6 cells/mL.
Cells from the stationary phase of stock cultures grown in the presence of light (7.5 mL) are transferred to 750 mL of Medium A in an Erlenmeyer flask. […]
An aqueous, 10% sodium dodecyl sulfate solution (250 μL) and methanol (1 mL) is added to each test well and is mixed thoroughly. […] The supernatants are removed and analyzed in a Beckman Model 35 spectrophotometer between 350 nm and 500 nm for the presence of protophorphrin IX, at 668 nm which is the absorption peak of chlorophyll in this solvent system, and at 720 nm to use as a turbidity background reading.
For each well a greenness value is obtained by subtracting the 720 nm reading from the 668 nm reading. […]

HeLa cells = assay: Proto IX production in HeLa cells, extract of cells alone (Example 7); assay type: cell-based; conditions: Homo sapiens, 100 uM agent, first formula (background-subtracted), read-out: increase in the amount of Proto IX relative to the control
Procedure: In a series of experiments along the lines of Examples 1 and 2, cultures of HeLa cells were incubated in the presence of 100 uM of various treating agents, listed below. The percentage given, next to each treating agent, indicates the increase in the amount of Proto IX produced in the presence of that treating agent relative to the amount produced by the control in the same experiment.
As in Examples 1 and 2, the data for this Example 7 were based on measurements of fluorescence (e.g. in counts per second, "cps"). In this Example, however, the measurements were made on an extract of the cells alone (in contrast to Examples 1 and 2 in which the disrupted cells and culture medium together were extracted), the fluorometric medium was the one described in Example 5 (containing 1% Tween-20, 50 mM Tris-HCl, 1 mM EDTA and 1 mM dithioerythritol, pH 8.5), and a cps measurement of the fluorometric medium per se was also made. In calculating the foregoing data for this Example, the following formula was used to calculate the percentage increases: [formula] where Ca is the counts per second for the sample resulting from treatment with the agent, Cc is the counts per second for the control sample, and Cm is the counts per second for the fluorometric medium per se (i.e. the background fluoroescence). On reviewing the data it was observed that Cc -Cm for this set of experiments was […] compared to Cm; for instance, individual measured values were 49025 and 52069 for Cc and 4295 for Cm. […] Accordingly, the data were recalculated using the formula: [formula] with the following results: 6a 336%; 5b 148%; 6c 154%; 6d 510%; 6e 320%; 6f 280%; 6g 329%; 6h 178%; 6i 171%; 6j 185%; 7a 118%; 7b 142%; 7c 103%; 7d 128%; 7e 173%; 7f 118%; 7q 155%; 7h 118%.

## Cc1nn(-c2cc(NS(C)(=O)=O)c(Cl)cc2Cl)c(=O)n1C(F)F [Agent 6c]
[1]
  response in light-greening inhibition test: do not respond well in this test
HeLa cells
  activation at 100 µM: 297%
